Assays:
[1] = tested on: Plasmodium falciparum; experiment: Antiplasmodial activity against chloroquine/mefloquine-resistant Plasmodium falciparum Dd2 measured after 72 hrs by SYBR Green1-based fluorescence assay; assay type: functional; conditions: Dd2, 72 h
[2] = Antiproliferative activity against human A2780 cells measured after 2 days by AlamarBlue assay; assay type: functional, cell-based; conditions: A2780, 48 h

CO[C@@H]1[C@@H](OC)[C@H](O[C@@H]2CC(=O)[C@@H]3CCN(Cc4cc5c(cc43)OCO5)C(=O)[C@H]2O)O[C@H](CO)[C@H]1OC
IC50 [1]: 180 nM
IC50 [2]: 16.4 nM

CO[C@@H]1[C@@H](OC)[C@H](O[C@@H]2CC(=O)[C@@H]3CCN(Cc4cc5c(cc43)OCO5)C(=O)[C@H]2O)O[C@H](C)[C@H]1OC
IC50 [1]: 260 nM
IC50 [2]: 28 nM

CO[C@H]1[C@@H]2OCOCO[C@H]2[C@H](O[C@@H]2CC(=O)[C@@H]3CCN(Cc4cc5c(cc43)OCO5)C(=O)[C@H]2O)O[C@@H]1C
IC50 [1]: 26 nM
IC50 [2]: 25 nM

CO[C@H]1[C@@H]2OCOCO[C@H]2[C@H](O[C@@H]2CC(=O)[C@@H]3CCN(Cc4cc5c(cc43)OCO5)C(=O)[C@H]2O)O[C@@H]1CO
IC50 [1]: 30 nM
IC50 [2]: 11.1 nM

C[C@@H]1CC[C@H]2[C@@H](C)C(=O)O[C@@H]3O[C@@]4(C)CC[C@@H]1[C@]32OO4 [ARTEMISININ]
IC50 [1]: 6 nM

— ChEMBL document CHEMBL3860063, “New potently bioactive alkaloids from Crinum erubescens” (Bioorg Med Chem, 2016)
